Assay type in all cases: physicochemical
Series [1] can be described thus: Physical stability on storage at controlled relative humidity. As to conditions: stored 6 days. The protocol: 3-[5-(2-fluorophenyl)-[1,2,4]oxadiazol-3-yl]-benzoic acid (UNMEASURED QUANTITY; FORM B) was stressed in 75% relative humidity at 40° C. for six days.
Series [2] is described as follows: Physical stability on milling / micronization. As to conditions: for physical stability when milled: milled at ambient and at sub-ambient temperatures.
The nature of series [3]: Physical stability on slurrying in solvents.
Series [4] in a line: Dynamic vapor sorption (DVS) hygroscopicity. The note with it: for hygroscopicity: DVS isotherm. The protocol: Form A of 3-[5-(2-fluorophenyl)-[1,2,4]oxadiazol-3-yl]-benzoic acid was evaluated for hygroscopicity. Dynamic vapor sorption (DVS) analysis of moisture uptake and moisture release as a function of relative humidity (RH) were obtained upon cycling between 5% and 95% RH. […] Accordingly, in certain embodiments, Form A is non-hygroscopic.
Moisture sorption/desorption data were collected on a VTI SGA-100 Vapor Sorption Analyzer. Sorption and desorption data were collected over a range of 5% to 95% relative humidity (RH) at 10% RH intervals under a nitrogen purge. Samples were not dried prior to analysis. Equilibrium criteria used for analysis were less than 0.0100% weight change in 5 minutes, with a maximum equilibration time of 3 hours if the weight criterion was not met. Data were not corrected for the initial moisture content of the samples. NaCl and PVP were used as calibration standards.

Series [5] is described as follows: Physical stability under compression.

Entries after “also recorded” stand apart in the source; their conditions may differ.

As to `O=C(O)c1cccc(-c2noc(-c3ccccc3F)n2)c1` [Form A, 3-[5-(2-fluorophenyl)-[1,2,4]oxadiazol-3-yl]-benzoic acid], the “physical stability on storage” value in series [1] (50% RH at 60° C.), in series [1] (53% RH at 40° C.), in series [1] (75% RH at 40° C.) and in series [1] (79% RH at 60° C.) was “physically stable” in each case. The “physical and chemical stability upon micronization” value in series [2] (micronization (particle size reduction)) is “physically and chemically stable”. The “physical stability when milled” value in series [2] is reported as “physically stable”. The “physical stability when slurried” value in series [3] (in 1-BuOH for 4 days at ambient temperature), in series [3] (in chloroform for 2 days at 50° C.) and in series [3] (in dichloromethane for 2 days at 50° C.) was “physically stable” each time. Also, the hygroscopicity entry in series [4] is “substantially non-hygroscopic”. For the same compound, in series [4] (cycling between 5% and 95% RH), the “maximum moisture uptake (DVS)” value is given as “about 0.06 % of the total mass of the sample”.
For the compound `O=C(O)c1cccc(-c2noc(-c3ccccc3F)n2)c1` [Form B, 3-[5-(2-fluorophenyl)-[1,2,4]oxadiazol-3-yl]-benzoic acid], the “physical stability on storage” value in series [1] (50% RH at 60° C.) is “physically stable”; in series [1] (53% RH at 40° C.), “physically stable”; in series [1] (75% RH at 40° C.) it was “physically stable; also recorded: characterized by XRPD as Form B”; in series [1] (79% RH at 60° C.), “partial conversion to Form A”. For the same compound, the “physical stability when milled” value in series [2] is “conversion from Form B to Form A”. Besides, the “physical stability when slurried” value is “physically stable” in series [3] (1 day at ambient temperature in a 1:1 mixture of THF and heptane); “conversion of Form B to Form A” in series [3] (in a 1:1 mixture of dioxane and water); “conversion of Form B to Form A” in series [3] (in methyl isobutyl ketone). Further, in series [4], the hygroscopicity result is given as “substantially non-hygroscopic”. The “physical stability under compression” value is reported as “physically stable” in series [5] (compression alone); “physically stable” in series [5] (compression in the presence of a 1:1 mixture of t-BuOH and water).

The record behind these values is US8748625B2, “Crystalline forms of 3-[5-(2-fluorophenyl)-[1,2,4]oxadiazol-3-yl]-benzoic acid” (PTC Therapeutics, Inc., priority 2006, dated 2014).
